From patent publication US20110082130A1 (LIGAND PHARMACEUTICALS, INC., priority 2006, published 2011)

Target: T1, chimeric human H3 receptor (Homo sapiens, UniProt Q9Y5N1)
T1 construct: made in house; host or cells: Sf9 insect cells (baculovirus); P2 membrane preparation
Experiment: Chimeric human H3 receptor GTP binding assay (agonist-stimulated GTP-gamma35S binding, Example 7)
Type: biochemical
Conditions: Table I; P2 membranes of Sf9 cells, 1 μM histamine as agonist, Ki from IC50 by Cheng-Prusoff
Source text: This Example illustrates a representative assay for evaluating agonist-stimulated GTP-gamma^35S binding (“GTP binding”) activity. […] This agonist-stimulated GTP binding activity can also be used to detect partial agonism mediated by antagonist compounds. A compound analyzed in this assay is referred to herein as a “test compound.”
Four independent baculoviral stocks (one directing the expression of the chimeric human H3 receptor and three directing the expression of each of the three subunits of a heterotrimeric G-protein) are used to infect a culture of Sf9 cells as described above. P2 membranes are prepared as described above, and agonist-stimulated GTP binding on the P2 membranes is assessed using histamine (Sigma Chemical Co., St. Louis, Mo.) as agonist in order to ascertain that the receptor/G-protein-alpha-beta-gamma combination(s) yield a functional response as measured by GTP binding. P2 membranes are resuspended by Dounce homogenization (tight pestle) in GTP binding assay buffer (50 mM Tris pH 7.4, 120 mM NaCl, 5 mM MgCl2, 2 mM EGTA, 1 mg/ml BSA, 0.2 mg/ml bacitracin, 0.02 mg/ml aprotinin, 0.01 mg/ml saponin, 10 μM GDP) and added to assay tubes at a concentration of 35 μg protein/reaction tube. After adding increasing doses of histamine at concentrations ranging from 10^−12 M to 10^−5 M, reactions are initiated by the addition of […] GTP-gamma^35S (PERKIN ELMER; Boston, Mass.) with a final assay volume of 0.20 ml. In competition experiments, non-radiolabeled test compounds are added to separate reactions at concentrations ranging from 10^−10 M to 10^−6 M along with 1 μM histamine to yield a final volume of 0.20 ml.
Neutral antagonists are antagonists that are substantially free of inherent agonist activity, and include those test compounds that reduce the histamine-stimulated GTP binding activity towards, but not below, baseline levels. In contrast, in the absence of added histamine, inverse agonists reduce the GTP binding activity of the receptor-containing membranes below baseline.
After a 60-min incubation at room temperature, reactions are terminated by vacuum filtration over WHATMAN GF/C filters (pre-soaked in wash buffer, 0.1% BSA) followed by washing with ice-cold wash buffer (50 mM Tris pH 7.4, 120 mM NaCl). The amount of receptor-bound (and thereby membrane-bound) GTP-gamma^35S is determined by measuring the filter-bound radioactivity, preferably by liquid scintillation spectrometry of the washed filters. Non-specific binding is determined in parallel assays including 10 μM unlabeled GTP-gammaS and typically represents less than 5 percent of total binding. Data is expressed as percent above basal (baseline). The results of GTP binding experiments are analyzed using SIGMAPLOT software (SPSS Inc., Chicago, Ill.). IC50 values are calculated by non-linear regression analysis of dose-response curves using Kaleidograph (Synergy Software, Reading, Pa.).
Alternatively the data is analyzed as follows. First, the average bound radioactivity from negative control wells (no agonist) is subtracted from the bound radioactivity detected for each of the other experimental wells. Second, average bound radioactivity is calculated for the positive control wells (agonist wells). Then, percent inhibition for each compound tested is calculated using the equation:
Calculated IC50 values are converted to K1 values by the Cheng-Prusoff correction (Cheng and Prusoff (1973) Biochem. Pharmacol. 22(23):3099-3108). Accordingly, the following equation: Ki=IC50/(1+[L]/EC50) is used, where [L] is the histamine concentration in the GTP binding assay, and EC50 is the concentration of histamine producing a 50% response, as determined by a dose-response analysis using concentrations of histamine ranging from 10^−10 M to 10^−6M. […]

T1 sequence (Q9Y5N1 with tags, fused parts or gaps): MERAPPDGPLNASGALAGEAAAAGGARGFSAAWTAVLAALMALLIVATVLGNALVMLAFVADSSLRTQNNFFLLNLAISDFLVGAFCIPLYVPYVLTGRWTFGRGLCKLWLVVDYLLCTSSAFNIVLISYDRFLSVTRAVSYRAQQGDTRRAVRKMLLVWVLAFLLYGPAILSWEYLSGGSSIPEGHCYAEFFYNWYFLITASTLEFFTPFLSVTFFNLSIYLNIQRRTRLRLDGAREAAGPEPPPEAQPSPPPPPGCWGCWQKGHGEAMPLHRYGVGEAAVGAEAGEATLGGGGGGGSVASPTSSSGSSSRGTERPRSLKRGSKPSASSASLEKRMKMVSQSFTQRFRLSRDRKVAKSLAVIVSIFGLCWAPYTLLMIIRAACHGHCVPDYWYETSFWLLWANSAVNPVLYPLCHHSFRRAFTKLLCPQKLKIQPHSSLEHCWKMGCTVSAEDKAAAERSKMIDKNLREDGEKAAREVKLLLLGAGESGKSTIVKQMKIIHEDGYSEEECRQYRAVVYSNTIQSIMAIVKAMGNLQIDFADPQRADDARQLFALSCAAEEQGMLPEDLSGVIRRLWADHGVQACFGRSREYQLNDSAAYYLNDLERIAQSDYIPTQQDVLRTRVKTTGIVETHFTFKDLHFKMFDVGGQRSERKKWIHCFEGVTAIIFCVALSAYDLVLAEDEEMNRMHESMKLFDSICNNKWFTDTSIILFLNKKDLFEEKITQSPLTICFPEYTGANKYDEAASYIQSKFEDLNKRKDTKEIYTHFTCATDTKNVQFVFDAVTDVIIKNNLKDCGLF

SMILES	Ki
CC(C)N1CCN(C(=O)CN2CCc3ccccc3C2Cc2ccccc2)CC1 (centres unmarked) [Compound 55, 1-benzyl-2-[2-(4-isopropylpiperazin-1-yl)-2-oxoethyl]-1,2,3,4-tetrahydroisoquinoline]	< 1000 nM
CCC1c2ccccc2CCN1CC(=O)N1CCN(C(C)C)CC1 (centres unmarked) [Compound 56, 1-ethyl-2-[2-(4-isopropylpiperazin-1-yl)-2-oxoethyl]-1,2,3,4-tetrahydroisoquinoline]	< 1000 nM
COc1ccc2c(c1)CCN(CC(=O)N1CCN(C3CCC3)CC1)C2c1ccccc1Cl (centres unmarked) [Compound 62, 1-(2-chlorophenyl)-2-[2-(4-cyclobutylpiperazin-1-yl)-2-oxoethyl]-6-methoxy-1,2,3,4-tetrahydroisoquinoline]	< 1000 nM
O=C(CN1CCc2cc(Br)ccc2C1c1ccccc1Cl)N1CCN(C2CCC2)CC1 (centres unmarked) [Compound 63, 6-bromo-1-(2-chlorophenyl)-2-[2-(4-cyclobutylpiperazin-1-yl)-2-oxoethyl]-1,2,3,4-tetrahydroisoquinoline]	< 1000 nM
O=C(CN1CCc2ncccc2C1)N1CCN(C2CCC2)CC1 [Compound 65, 6-[2-(4-cyclobutylpiperazin-1-yl)-2-oxoethyl]-5,6,7,8-tetrahydro-1,6-naphthyridine]	< 1000 nM
CC(=O)c1ccc(-c2ccc3c(c2)CCN(CC(=O)N2CCN(C4CCC4)CC2)C3)cc1 [Compound 67, 1-(4-{2-[2-(4-cyclobutylpiperazin-1-yl)-2-oxoethyl]-1,2,3,4-tetrahydroisoquinolin-6-yl}phenyl)ethanone]	< 1000 nM
N#Cc1ccc2c(c1)CCN(CC(=O)N1CCN(C3CCC3)CC1)C2 [Compound 69, 2-[2-(4-cyclobutylpiperazin-1-yl)-2-oxoethyl]-1,2,3,4-tetrahydroisoquinoline-6-carbonitrile]	< 1000 nM
CNC(=O)c1ccc(-c2ccc3c(c2)CCN(CC(=O)N2CCN(C4CCC4)CC2)C3)cc1 [Compound 72, 4-{2-[2-(4-cyclobutylpiperazin-1-yl)-2-oxoethyl]-1,2,3,4-tetrahydroisoquinolin-6-yl}-N-methylbenzamide]	< 1000 nM
COc1ccc(-c2ncc3c(n2)CCN(CC(=O)N2CCN(C4CCC4)CC2)C3)cc1 [Compound 76, 6-[2-(4-cyclobutylpiperazin-1-yl)-2-oxoethyl]-2-(4-methoxyphenyl)-5,6,7,8-tetrahydropyrido[4,3-d]pyrimidine]	< 1000 nM
COc1ccc2c(c1)CCN(CC(=O)N1CCN(C3CCC3)CC1)CC2 [Compound 77, 3-[2-(4-cyclobutylpiperazin-1-yl)-2-oxoethyl]-7-methoxy-2,3,4,5-tetrahydro-1H-3-benzazepine]	< 1000 nM
COc1ncnc2c1CCN(CC(=O)N1CCN(C3CCC3)CC1)CC2 [Compound 78, 7-[2-(4-cyclobutylpiperazin-1-yl)-2-oxoethyl]-4-methoxy-6,7,8,9-tetrahydro-5H-tetrahydro-5H-pyrimido[4,5-d]azepine]	< 1000 nM
O=C(CN1CCc2cncnc2CC1)N1CCN(C2CCC2)CC1 [Compound 80, 7-[2-(4-cyclobutylpiperazin-1-yl)-2-oxoethyl]-6,7,8,9-tetrahydro-5H-pyrimido[4,5-d]azepine]	< 1000 nM
CC(=O)c1ccc(-c2cnc3n2CCN(CC(=O)N2CCN(C4CCC4)CC2)C3)cc1 [Compound 82, 1-(4-{7-[2-(4-cyclobutylpiperazin-1-yl)-2-oxoethyl]-5,6,7,8-tetrahydroimidazo[1,2-a]pyrazin-3-yl}phenyl)ethanone]	< 1000 nM

Results, then the molecule that gave them:

Ki	SMILES
< 1000 nM	CC(C)N1CCN(C(=O)CN2CCc3ccccc3C2CC2CCCC2)CC1 (centres unmarked) [Compound 54, 1-(cyclopentylmethyl)-2-[2-(4-isopropylpiperazin-1-yl)-2-oxoethyl]-1,2,3,4-tetrahydroisoquinoline]
< 1000 nM	CC(C)CC1c2ccccc2CCN1CC(=O)N1CCN(C(C)C)CC1 (centres unmarked) [Compound 57, 1-isobutyl-2-[2-(4-isopropylpiperazin-1-yl)-2-oxoethyl]-1,2,3,4-tetrahydroisoquinoline]
< 1000 nM	CC(C)N1CCN(C(=O)CN2CCc3ccccc3C2c2ccccc2F)CC1 (centres unmarked) [Compound 58, 1-(2-fluorophenyl)-2-[2-(4-isopropylpiperazin-1-yl)-2-oxoethyl]-1,2,3,4-tetrahydroisoquinoline]
< 1000 nM	CC(C)N1CCN(C(=O)CN2CCc3ccccc3C2c2ccccc2Cl)CC1 (centres unmarked) [Compound 59, 1-(2-chlorophenyl)-2-[2-(4-isopropylpiperazin-1-yl)-2-oxoethyl]-1,2,3,4-tetrahydroisoquinoline]
< 1000 nM	COc1ccc2c(c1)CCN(CC(=O)N1CCN(C3CCC3)CC1)C2 [Compound 60, 2-[2-(4-cyclobutylpiperazin-1-yl)-2-oxoethyl]-6-methoxy-1,2,3,4-tetrahydroisoquinoline]
< 1000 nM	CC(=O)c1ccc2c(c1)CCN(CC(=O)N1CCN(C3CCC3)CC1)C2 [Compound 61, 1-{2-[2-(4-cyclobutylpiperazin-1-yl)-2-oxoethyl]-1,2,3,4-tetrahydroisoquinolin-6-yl}ethanone]
< 1000 nM	CC(=O)c1ccc2c(c1)CCN(CC(=O)N1CCN(C3CCC3)CC1)C2c1ccccc1Cl (centres unmarked) [Compound 64, 1-{1-(2-chlorophenyl)-2-[2-(4-cyclobutylpiperazin-1-yl)-2-oxoethyl]-1,2,3,4-tetrahydroisoquinolin-6-yl}ethanone]
< 1000 nM	CNC(=O)c1ccc2c(c1)CN(CC(=O)N1CCN(C3CCC3)CC1)CC2 [Compound 66, 2-[2-(4-cyclobutylpiperazin-1-yl)-2-oxoethyl]-N-methyl-1,2,3,4-tetrahydroisoquinoline-7-carboxamide]
< 1000 nM	Cc1noc(C)c1-c1ccc2c(c1)CCN(CC(=O)N1CCN(C3CCC3)CC1)C2 [Compound 68, 2-[2-(4-cyclobutylpiperazin-1-yl)-2-oxoethyl]-6-(3,5-dimethylisoxazol-4-yl)-1,2,3,4-tetrahydroisoquinoline]
< 1000 nM	O=C(CN1CCc2cc(-c3cncnc3)ccc2C1)N1CCN(C2CCC2)CC1 [Compound 70, 2-[2-(4-cyclobutylpiperazin-1-yl)-2-oxoethyl]-6-pyrimidin-5-yl-1,2,3,4-tetrahydrasoquinoline]
< 1000 nM	CC(=O)c1ccc(-c2ncc3c(n2)CCN(CC(=O)N2CCN(C4CCC4)CC2)C3)cc1 [Compound 71, 1-(4-{6-[2-(4-cyclobutylpiperazin-1-yl)-2-oxoethyl]-5,6,7,8-tetrahydropyrido[4,3-d]pyrimidin-2-yl}phenyl)ethanone]
< 1000 nM	CCC(=O)c1ccc2c(c1)CCN(CC(=O)N1CCN(C3CCC3)CC1)C2 [Compound 73, 1-{2-[2-(4-cyclobutylpiperazin-1-yl)-2-oxoethyl]-1,2,3,4-tetrahydroisoquinolin-6-yl}propan-1-one]
< 1000 nM	CS(=O)(=O)c1cccc(-c2ccc3c(c2)CCN(CC(=O)N2CCN(C4CCC4)CC2)C3)c1 [Compound 74, 2-[2-(4-cyclobutylpiperazin-1-yl)-2-oxoethyl]-6-[3-(methylsulfonyl)phenyl]-1,2,3,4-tetrahydroisoquinoline]
< 1000 nM	O=C(CN1CCc2cc(-c3ccncc3)ccc2C1)N1CCN(C2CCC2)CC1 [Compound 75, 2-[2-(4-cyclobutylpiperazin-1-yl)-2-oxoethyl]-6-pyridin-4-yl-1,2,3,4-tetrahydroisoquinoline]
< 1000 nM	CC(=O)c1ccc(-c2ncnc3c2CCN(CC(=O)N2CCN(C4CCC4)CC2)CC3)cc1 [Compound 79, 1-(4-{7-[2-(4-cyclobutylpiperazin-1-yl)-2-oxoethyl]-6,7,8,9-tetrahydro-5H-pyrimido[4,5-d]azepin-4-yl}phenyl)ethanone]
< 1000 nM	O=C(CN1CCn2c(Br)cnc2C1)N1CCN(C2CCC2)CC1 [Compound 81, 3-bromo-7-[2-(4-cyclobutylpiperazin-1-yl)-2-oxoethyl]-5,6,7,8-tetrahydroimidazo[1,2-a]pyrazine]
